What was measured:
[1] = system: black bean aphids (Aphis fabae); test: Root-systemic test: solution pipetted into bottle with field bean (Vicia faba), aphid mortality; details: 4 ml aqueous solution pipetted into bottle; after 3 and 6 days of storage; concentration 500 ppm or less
Method: Germinated field bean seeds (Vicia faba) with seed roots were transferred into brown glass bottles filled with tap water. Four milliliters of an aqueous solution of the formulated preparation to be examined were pipetted into the brown glass bottle. The field bean was then heavily populated with about 100 black bean aphids (Aphis fabae). Plants and aphids were then stored in a climatized chamber (16 hours of light/day, 25° C., 40-60% relative atmospheric humidity). After 3 and 6 days of storage, the root-systemic effect of the preparation as aphid mortality was determined.

[2] = system: black bean aphids (Aphis fabae); test: Dip test: field bean plants (Vicia faba) and aphids dipped into solution of preparation, aphid mortality; details: plants and aphids dipped 5 seconds; after 3 and 6 days of storage; concentration 500 ppm or less
Method: Germinated field bean seeds (Vicia faba) with seed roots were transferred into brown glass bottles filled with tap water and then populated with about 100 black bean aphids (Aphis fabae). Plants and aphids were then dipped into an aqueous solution of the formulated preparation to be examined for 5 seconds. After they had drained, plants and animals were stored in a climatized chamber (16 hours of light/day, 25° C., 40-60% relative atmospheric humidity). After 3 and 6 days of storage, the mortality of the preparation on the aphids was determined.

| SMILES | root-systemic effect of the preparation as aphid mortality [1] | mortality of the preparation on the aphids [2] |
| --- | --- | --- |
| CCCCCCSNC(=O)c1cnccc1C(F)(F)F [Example 49] | active | active |
| CC(C)N(Sc1ccccc1)C(=O)c1cnccc1C(F)(F)F [Example 4] | active | active |
| CCCCCSNC(=O)c1cnccc1C(F)(F)F [Example 48] | active | active |
| O=C(NSc1ccc(F)cc1)c1cnccc1C(F)(F)F [Example 23] | active | active |
| CC(C)CCSNC(=O)c1cnccc1C(F)(F)F [Example 45] | active | active |
| O=C(NSCc1cccc(C(F)(F)F)c1)c1cnccc1C(F)(F)F [Example 85] | active | active |
| CC(C)SN=C(OCCC(C)[N+](=O)[O-])c1cnccc1C(F)(F)F (stereo not shown) [Example 124] | active | active |
| CCCCCCCSNC(=O)c1cnccc1C(F)(F)F [Example 50] | active | active |
| Cc1ccc(SN(C(=O)c2cnccc2C(F)(F)F)C(C)C)cc1 [Example 6] | active | active |
| CCN(Sc1ccccc1)C(=O)c1cnccc1C(F)(F)F [Example 3] | active | active |
| O=C(NSC1CCCCC1)c1cnccc1C(F)(F)F [Example A, N-cyclohexylthio-(4-trifluoromethyl)nicotinamide] | active | active |
| C=CCSNC(=O)c1cnccc1C(F)(F)F [Example 44] | active | active |
| CC(C)SNC(=O)c1cnccc1C(F)(F)F [Example 29] | active | active |
| O=C(NSc1ccccc1)c1cnccc1C(F)(F)F [Example 2] | active | active |
| O=C(NSCc1ccc(C(F)(F)F)cc1)c1cnccc1C(F)(F)F [Example 84] | active | active |
| O=C(NSC1CC1)c1cnccc1C(F)(F)F [Example 98] | active | active |
| CCC(C)SNC(=O)c1cnccc1C(F)(F)F (stereo not shown) [Example B, N-(2-butylthio)-(4-trifluoromethyl)nicotinamide] | active | active |
| O=C(NSc1ccc(Cl)cc1)c1cnccc1C(F)(F)F [Example 18] | active | active |
| O=C(NSC1CCCC1)c1cnccc1C(F)(F)F [Example 1] | active | active |
| CCC(C)CSNC(=O)c1cnccc1C(F)(F)F (stereo not shown) [Example 38] | active | active |
